Source: patent publication US12240890B2, “Compositions and methods for treating and/or preventing pathogenic fungal infection and for maintenance of microbiome commensalism” (priority 2017, dated 2025)
Values joined by “and” are separate entries in the source; they are usually repeats but may differ in a detail not shown here. Equal entries are not always repeated. No end group written: not given here.

Tests used:
[1] = test system: C. albicans strain SC5314; experiment: crystal violet based biofilm assay (24 hours, OD600); type: cell-based, Candida albicans; conditions: for efficacy in inhibiting formation of biofilm relative to PYY13-36: in vitro, Candida albicans; for Mean Normalized to vehicle control: biofilm OD600 values normalized to vehicle control, 24 hours; for inhibition of biofilm formation: crystal violet staining, 10-20 uM of respective peptides
Procedure: FIG. 13. […] Biofilm formation was measured in an assay that quantitates biofilms by staining with a crystal violet dye. The amount of dye absorbed by the biofilm positively correlates with amount of biofilm present. Amount of dye is measured via an optical density reading at a wavelength of 600 nm (OD600). Biofilm formation is measured over 24 hours in the presence or absence of peptides at 10, 30, or 40 uM concentrations.
Candida albicans (sc3514 cited in: Romanowski et al. PLOS One 7: e30119, 2012.: incorporated by reference in its entirety) and Candida tropicalis (ATCC #13803) were maintained in frozen glycerol stocks at −80° C. and streaked out on yeast-peptone-dextrose (YPD) agar plates for 48 hours at 30° C. prior to use. Single colonies were selected and cultured in YPD media at 30° C. Biofilm assays were performed using crystal violet straining (Taff et al. Med Mycol 50:214-218, 2012.: incorporated by reference in its entirety) in the presence of 10-20 uM of respective peptides. To induce hyphal growth, strains were placed in YPD+5% FBS or RPMI media at 37° C. for 4 hours. To image hyphal membrane disruption, the DNA binding fluorescent dye, propidium iodide (PI), was added to wells strains in the presence of peptides and imaged under bright field and far red fluorescent conditions. […] To investigate Candida albican virulence gene expression, 10 μL of a 1.0 OD600 culture were placed in 1 mL RPMI at 37° C. with shaking for 8 hours. Cultures were centrifuged at 3000×g for 5 minutes and RNA isolation was performed as described below.
Antifungal activity of peptides described in this application was tested by performing a crystal violet based biofilm assay. In this assay, Candida albicans is induced to form a biofilm in a 96-well plate for 24 hours in the presence or absence of peptide. Biofilm formation is quantitated through crystal violet staining and solubilization followed by optical density reading. […] Data are OD600 values normalized to appropriate within experiment vehicle control. Statistical analysis was performed via 2-Way ANOVA with multiple comparisons post-test. Significance is denoted by: *=p<0.05; **=p<0.01; ***-p<0.001; ****=p<0.0001. ns=not significant.

Candida albicans = Candida albicans culture growth; type: cell-based; conditions: hyphal inducing conditions (broth culture containing serum)

Row | Substance | Mean Normalized to vehicle control ([1]; 10 μM peptide) | Mean Normalized to vehicle control ([1]; 30 μM peptide) | Mean Normalized to vehicle control ([1]; 40 μM peptide) | other results
1 | SPEELNRLLASLRHLLNLVTRQRY [AVpeptide 32, (Y20L, Y21L, Y27L)] |  |  |  | efficacy in inhibiting formation of biofilm relative to PYY13-36 [1]: increased inhibition of biofilm formation
2 | SPEELNRYYASLRHYINLVTRQRY [AVpeptide 29, (L28I)] | 0.58 | 0.04 |  | 
3 | PEELNRYYASLRHYLNLVTRQRA [AVpeptide 3, (14-36, Y36A)] | 1.00 and 0.94 | 0.90 and 0.93 | 0.91 | 
4 | SPEELNRYYASLRHYLNLVTRQLY [AVpeptide 21, (R35L)] | 0.92 | 0.02 |  | 
5 | LPEELNRYYASLRHYLNLVTRQRY [AVpeptide 10, (S13L)] |  |  | 0.17 | 
6 | SPEELNRYYASLRHYLNLVTRQRR [AVpeptide 5, (Y36R)] | 0.64 and 0.76 | 0.28 and 0.53 |  | 
7 | LPEELNRYYASLRHYLNLVTRQLY [AVpeptide 11, (S13L; R35L)] |  |  | 0.99 | 
8 | YPEEYNRYYASYRHYLNLVTRQRY [AVpeptide 17, (S13Y L17Y L24Y)] | 0.91 | 0.94 |  | 
9 | SPEELNRYYLALRHYLNLVTRQRY [AVpeptide 31, (A22L, S23A)] | 0.05 | 1.00 |  | 
10 | SPEELNRYYASLRHYLNLVTRQYY [AVpeptide 7, (R35Y)] | 0.97 | 0.08 | 0.33 | 
11 | SPEELNKYYASLRHYLNLVTRQRY [AVpeptide 27, (R19K)] | 0.66 | 0.08 |  | 
12 | SPDELNRYYASLRKYLNLVTRQRY [AVpeptide 14, (E15D, H26K)] | 0.82 | 0.07 | 0.07 | 
13 | LPDELNRYYASLRKYLNLVTRQRY [AVpeptide 25, (S13L, E15D, H26K)] |  | 0.01 and 0.02 |  | inhibition of biofilm formation at concentrations lower than PYY13-36 [1]: greatly inhibited biofilm formation by C. albicans at concentrations lower than PYY13-36; efficacy in inhibiting formation of biofilm relative to PYY13-36 [1]: increased inhibition of biofilm formation
14 | PEELNRYYASLRHYLNLVTRQLY [AVpeptide 1, (14-36; R35L)] | 0.96 and 0.95 | 0.74 and 0.40 | 0.14 | 
15 | SPEELNRYYLSLRHYLNLVTRQRY [AVpeptide 20, (A22L)] | 0.47 and 0.52 and 0.62 | 1.07 and 1.25 and 1.03 | 1.04 | efficacy in inhibiting formation of biofilm relative to PYY13-36 [1]: increased inhibition of biofilm formation
16 | PYY 1-36 Modified: PYY with charge modified by replacing Arginine with Alanine (YPIKPEAPGEDASPEELNAYYASLAHYLNLVTAQAY; ends and bridges not checked) [reference compound] |  |  |  | inhibition of biofilm formation [1]: reduced the inhibitory effect
17 | LPEELNRYYASLRHYLRLVTRQLY [AVpeptide 23, (S13L, N29R, R35L)] | 0.03 |  |  | inhibition of biofilm formation at concentrations lower than PYY13-36 [1]: greatly inhibited biofilm formation by C. albicans at concentrations lower than PYY13-36; efficacy in inhibiting formation of biofilm relative to PYY13-36 [1]: increased inhibition of biofilm formation
18 | SPEELNRYYASLRHYLNLVTRQR [AVpeptide 24, (PYY13-35)] | 0.83 | 0.71 |  | efficacy in inhibiting formation of biofilm relative to PYY13-36 [1]: reduced efficacy

Row | Substance | Mean Normalized to vehicle control ([1]; 10 μM peptide) | Mean Normalized to vehicle control ([1]; 30 μM peptide) | Mean Normalized to vehicle control ([1]; 40 μM peptide) | other results
19 | SPEELNRYYASLRHYLNLVTRQ [AVpeptide 15, (13-34)] | 0.96 | 0.78 | 0.69 | 
20 | SPEELNRYYASLRHYLNLVTRQLR [AVpeptide 6] | 0.97 | 0.52 | 0.28 | efficacy in inhibiting formation of biofilm relative to PYY13-36 [1]: reduced efficacy
21 | SPEELNRYYASSRHYLNLVTRQRY [AVpeptide 19, (L24S)] | 1.06 | 1.01 | 0.97 | efficacy in inhibiting formation of biofilm relative to PYY13-36 [1]: reduced efficacy
22 | PYY14-36 Modified: PYY14-36 with Arginine replaced by Alanine (PEELNAYYASLAHYLNLVTAQAY; ends and bridges not checked) [reference compound] |  |  |  | inhibition of biofilm formation [1]: reduced the inhibitory effect
23 | PYY1-12: N-terminal PYY fragment used as inactive comparison peptide (YPIKPEAPREDA; Peptide YY; UniProt P10082 29-40, looked up, fragment) [reference compound] |  |  |  | inhibition of biofilm formation [1]: not a scrambled peptide control or PYY1-12, were capable of blocking biofilm formation
24 | SPEELNRYYASLRHYLRLVTRQRY [AVpeptide 22, (N29R)] | 0.84 | 0.37 |  | 
25 | YPEEYNRYYASYRHYLNHVTRQRY [AVpeptide 16, (S13Y L17Y L24Y L30H)] | 1.06 | 1.02 | 0.95 | 
26 | SPEELNRYYASLRHYLRLVTRQLY [AVpeptide 9, (N29R; R35L)] |  |  | 0.05 | 
27 | ASPEELNRYYASLRHYLNLVTRQRY [AVpeptide 18, (12-36)] | 1.11 | 0.16 | 0.05 | 
28 | PYY1-13: PYY peptide composed of amino acids 1-13 (YPIKPEAPGEDAS) |  |  |  | C. albicans culture growth (Candida albicans): displayed no antifungal properties
29 | SPEELNRYYTALRHYLNLVTRQRY [AVpeptide 30, (A22T, S23A)] | 0.16 and 0.10 | 0.02 |  | 
30 | SPEQLNRYYASLRHYLNLVTRERY [AVpeptide 13, (E16Q, Q34A)] | 0.95 | 0.14 | 0.07 | 
31 | SPEELNRYYASLRHYLNLVTRQVY [AVpeptide 8, (R35V)] | 0.97 | 0.71 | 0.31 | efficacy in inhibiting formation of biofilm relative to PYY13-36 [1]: reduced efficacy
32 | SPEELNRYYASLRHYYNLVTRQRY [AVpeptide 12, (L28Y)] | 1.01 | 0.46 | 0.15 | 
33 | PEELNRYYASLRHYLNAVTRQLA [AVpeptide 4, (14-36, L30A; R35L; Y36A)] | 1.04 and 0.98 | 0.89 and 0.94 | 0.88 | 
34 | PEELNRYYASLRHYLNAVTRQRY [AVpeptide 2, (14-36, L30A)] | 1.05 and 1.02 | 0.91 and 1.08 | 1.01 | 
35 | SPEELNRYLASLRHYLNLVTRQRY [AVpeptide 28, (Y21L)] |  | 0.09 and 0.17 |  | 
